From patent US10292391B2, “Pesticidally active 1,2,4-triazole derivatives with sulphur containing substituents” (Syngenta Participations AG, priority 2015, dated 2019)

How the values were obtained:
Type in all cases: in vivo
[1] = test system: Spodoptera littoralis (Egyptian Cotton Leaf Worm); assay: Activity against Spodoptera littoralis, sprayed cotton leaf discs; conditions: foliar, 72 h, application rate of 200 ppm, L1 larvae, 3 days after infestation, read-out: control (at least one of mortality, anti-feedant effect, and growth inhibition)
Protocol: Cotton leaf discs were placed on agar in 24-well microtiter plates and sprayed with aqueous test solutions prepared from 10,000 ppm DMSO stock solutions. After drying the leaf discs were infested with five L1 larvae. The samples were assessed for mortality, anti-feedant effect, and growth inhibition in comparison to untreated samples 3 days after infestation. Control of Spodoptera littoralis by a test sample is when at least one of mortality, anti-feedant effect, and growth inhibition is higher than the untreated sample.

[2] = test system: Diabrotica Balteata (Corn Root Worm); assay: Activity against Diabrotica balteata, sprayed maize sprouts; conditions: 96 h, application rate of 200 ppm, L2 larvae, 4 days after infestation, read-out: effect in at least one of the two categories (mortality or growth inhibition)
Protocol: Maize sprouts, placed on an agar layer in 24-well microtiter plates were treated with aqueous test solutions prepared from 10,000 ppm DMSO stock solutions by spraying. After drying, the plates were infested with L2 larvae (6 to 10 per well). The samples were assessed for mortality and growth inhibition in comparison to untreated samples 4 days after infestation.

[3] = test system: Euschistus heros(Neotropical Brown Stink Bug); assay: Activity against Euschistus heros, sprayed soybean leaf; conditions: 120 h, application rate of 200 ppm, N-2 nymphs, 5 days after infestation, read-out: effect in at least one of the two categories (mortality or growth inhibition)
Protocol: Soybean leaf on agar in 24-well microtiter plates were sprayed with aqueous test solutions prepared from 10,000 ppm DMSO stock solutions. After drying the leaf were infested with N-2 nymphs. The samples were assessed for mortality and growth inhibition in comparison to untreated samples 5 days after infestation.

[4] = test system: Frankliniella occidentalis (Western Flower Thrips); assay: Activity against Frankliniella occidentalis, sprayed sunflower leaf discs; conditions: foliar, 168 h, application rate of 200 ppm, population of mixed ages, 7 days after infestation
Protocol: Sunflower leaf discs were placed on agar in 24-well microtiter plates and sprayed with aqueous test solutions prepared from 10,000 DMSO stock solutions. After drying the leaf discs were infested with a Frankliniella population of mixed ages. The samples were assessed for mortality 7 days after infestation.

[5] = test system: Myzus persicae (Green Peach Aphid); assay: Activity against Myzus persicae, sprayed sunflower leaf discs; conditions: foliar, 144 h, application rate of 200 ppm, aphid population of mixed ages, 6 days after infestation
Protocol: Sunflower leaf discs were placed on agar in a 24-well microtiter plate and sprayed with aqueous test solutions prepared from 10,000 ppm DMSO stock solutions. After drying, the leaf discs were infested with an aphid population of mixed ages. The samples were assessed for mortality 6 days after infestation.

[6] = test system: Plutella xylostella (Diamond Back Moth); assay: Activity against Plutella xylostella, treated artificial diet; conditions: 120 h, application rate of 200 ppm, L2 larvae, 5 days after infestation, read-out: effect in at least one of the two categories (mortality or growth inhibition)
Protocol: 24-well microtiter plates with artificial diet were treated with aqueous test solutions prepared from 10,000 ppm DMSO stock solutions by pipetting. After drying, the plates were infested with L2 larvae (10 to 15 per well). The samples were assessed for mortality and growth inhibition in comparison to untreated samples 5 days after infestation.

[7] = test system: Myzus persicae (Green Peach Aphid); assay: Activity against Myzus persicae, systemic via roots of pea seedlings; conditions: 144 h, test rate of 24 ppm, roots of pea seedlings in test solution, 6 days
Protocol: Roots of pea seedlings infested with an aphid population of mixed ages were placed directly in the aqueous test solutions prepared from 10,000 DMSO stock solutions. The samples were assessed for mortality 6 days after placing seedlings in test solutions.

[8] = test system: Spodoptera littoralis (Egyptian Cotton Leaf Worm); assay: Activity against Spodoptera littoralis, systemic via lettuce grown on treated agar; conditions: 144 h, test rate of 12.5 ppm, root uptake by lettuce, 6 days after infestation, read-out: effect in at least one of the three categories (mortality, anti-feedancy, or growth inhibition)
From the text: Test compounds were applied by pipette from 10,000 ppm DMSO stock solutions into 24-well plates and mixed with agar. Lettuce seeds were placed on the agar and the multi well plate was closed by another plate which contains also agar. After 7 days the roots have absorbed the compound and the lettuce has grown into the lid plate. The lettuce leafs were now cut off into the lid plate. Spodoptera eggs were pipetted through a plastic stencil on a humid gel blotting paper and the plate closed with it. The samples were assessed for mortality, anti-feedant effect and growth inhibition in comparison to untreated samples 6 days after infestation.

CCSc1cc(-c2ccc(Cl)cc2)cnc1-c1nnc(-c2cc(C(F)(F)F)ccn2)n1C [Compound P1, 5-(4-chlorophenyl)-3-ethylsulfanyl-2-[4-methyl-5-[4-(trifluoromethyl)-2-pyridyl]-1,2,4-triazol-3-yl]pyridine]
≥ 80%: mortality at 200 ppm [1] | percent effect (mortality or growth inhibition) at 200 ppm [2]

CCS(=O)(=O)c1cc(-c2ccc(Cl)cc2)cnc1-c1nnc(-c2cc(C(F)(F)F)ccn2)n1C [Compound P2, 5-(4-chlorophenyl)-3-ethylsulfonyl-2-[4-methyl-5-[4-(trifluoromethyl)-2-pyridyl]-1,2,4-triazol-3-yl]pyridine]
≥ 80%: mortality at 200 ppm [1] | percent effect (mortality or growth inhibition) at 200 ppm [2]

CCSc1cc(-n2cccn2)cnc1-c1nnc(-c2cc(C(F)(F)F)ccn2)n1C [Compound P3, 3-ethylsulfanyl-2-[4-methyl-5-[4-(trifluoromethyl)-2-pyridyl]-1,2,4-triazol-3-yl]-5-pyrazol-1-yl-pyridine]
≥ 80%: percent effect (mortality or growth inhibition) at 200 ppm [3] | mortality at 200 ppm [4]

CCS(=O)(=O)c1cc(-n2cccn2)cnc1-c1nnc(-c2cc(C(F)(F)F)ccn2)n1C [Compound P4, 3-ethylsulfonyl-2-[4-methyl-5-[4-(trifluoromethyl)-2-pyridyl]-1,2,4-triazol-3-yl]-5-pyrazol-1-yl-pyridine]
≥ 80%: mortality at 200 ppm [1] | mortality at 200 ppm [5] | percent effect (mortality or growth inhibition) at 200 ppm [3]

CCSc1cc(-n2cc(C(F)(F)F)cn2)cnc1-c1nnc(-c2cc(C(F)(F)F)ccn2)n1C [Compound P5]
≥ 80%: percent effect (mortality or growth inhibition) at 200 ppm [2]

CCSc1cc(-c2ncccn2)cnc1-c1nnc(-c2cc(C(F)(F)F)ccn2)n1C [Compound P8]
≥ 80%: percent effect (mortality or growth inhibition) at 200 ppm [6] | percent effect (mortality or growth inhibition) at 200 ppm [2] | mortality at 200 ppm [4]

CCS(=O)(=O)c1cc(-c2ccc(C(F)(F)F)cc2)cnc1-c1nnc(-c2cc(C(F)(F)F)ccn2)n1C [Compound P11]
≥ 80%: percent effect (mortality or growth inhibition) at 200 ppm [6] | mortality at 200 ppm [1] | mortality at 200 ppm [5] | percent effect (mortality or growth inhibition) at 200 ppm [2] | percent effect (mortality or growth inhibition) at 200 ppm [3]

C=Cc1cnc(-c2nnc(-c3cc(C(F)(F)F)ccn3)n2C)c(S(=O)(=O)CC)c1 [Compound P12, 3-ethylsulfonyl-2-[4-methyl-5-[4-(trifluoromethyl)-2-pyridyl]-1,2,4-triazol-3-yl]-5-vinyl-pyridine]
≥ 80%: mortality at 24 ppm [7] | mortality at 200 ppm [5]

CCS(=O)(=O)c1cc(-n2ccc(C#N)n2)cnc1-c1nnc(-c2cc(C(F)(F)F)ccn2)n1C [Compound P16]
≥ 80%: percent effect (mortality or growth inhibition) at 200 ppm [6] | mortality at 200 ppm [1] | mortality at 200 ppm [5] | percent effect (mortality or growth inhibition) at 200 ppm [2] | percent control (mortality, anti-feedancy or growth inhibition) at 12.5 ppm [8]

CCS(=O)(=O)c1cc(-c2ncc(Cl)cn2)cnc1-c1nnc(-c2cc(C(F)(F)F)ccn2)n1C [Compound P18]
≥ 80%: mortality at 200 ppm [1] | percent effect (mortality or growth inhibition) at 200 ppm [2]

CCS(=O)(=O)c1cc(-c2ncc(C#N)cn2)cnc1-c1nnc(-c2cc(C(F)(F)F)ccn2)n1C [Compound P20]
≥ 80%: percent effect (mortality or growth inhibition) at 200 ppm [6] | mortality at 200 ppm [1] | mortality at 200 ppm [5] | percent effect (mortality or growth inhibition) at 200 ppm [2] | percent effect (mortality or growth inhibition) at 200 ppm [3] | percent control (mortality, anti-feedancy or growth inhibition) at 12.5 ppm [8]

CCS(=O)(=O)c1cc(-c2cccc(C#N)n2)cnc1-c1nnc(-c2cc(C(F)(F)F)ccn2)n1C [Compound P21]
≥ 80%: percent effect (mortality or growth inhibition) at 200 ppm [6] | mortality at 200 ppm [1] | mortality at 200 ppm [5] | percent effect (mortality or growth inhibition) at 200 ppm [2] | percent effect (mortality or growth inhibition) at 200 ppm [3] | percent control (mortality, anti-feedancy or growth inhibition) at 12.5 ppm [8] | mortality at 200 ppm [4]

CCS(=O)(=O)c1cc(-c2cccc(Cl)n2)cnc1-c1nnc(-c2cc(C(F)(F)F)ccn2)n1C [Compound P24, 5-(6-chloro-2-pyridyl)-3-ethylsulfonyl-2-[4-methyl-5-[4-(trifluoromethyl)-2-pyridyl]-1,2,4-triazol-3-yl]pyridine]
≥ 80%: percent effect (mortality or growth inhibition) at 200 ppm [6] | mortality at 200 ppm [1] | percent effect (mortality or growth inhibition) at 200 ppm [2] | percent effect (mortality or growth inhibition) at 200 ppm [3]

CCS(=O)(=O)c1cc(-n2ccc(Cl)n2)cnc1-c1nnc(-c2cc(C(F)(F)F)ccn2)n1C [Compound P28]
≥ 80%: percent effect (mortality or growth inhibition) at 200 ppm [6] | mortality at 200 ppm [1] | mortality at 200 ppm [5] | percent effect (mortality or growth inhibition) at 200 ppm [2] | percent effect (mortality or growth inhibition) at 200 ppm [3] | percent control (mortality, anti-feedancy or growth inhibition) at 12.5 ppm [8] | mortality at 200 ppm [4]

CCS(=O)(=O)c1cc(SC(F)(F)F)cnc1-c1nnc(-c2cc(C(F)(F)F)ccn2)n1C [Compound P34, 3-ethylsulfonyl-2-[4-methyl-5-[4-(trifluoromethyl)-2-pyridyl]-1,2,4-triazol-3-yl]-5-(trifluoromethylsulfanyl)pyridine]
≥ 80%: mortality at 200 ppm [5] | percent effect (mortality or growth inhibition) at 200 ppm [2]

CCS(=O)(=O)c1cc(S(=O)(=O)C(F)(F)F)cnc1-c1nnc(-c2cc(C(F)(F)F)ccn2)n1C [Compound P35, 3-ethylsulfonyl-2-[4-methyl-5-[4-(trifluoromethyl)-2-pyridyl]-1,2,4-triazol-3-yl]-5-(trifluoromethylsulfonyl)pyridine]
≥ 80%: percent effect (mortality or growth inhibition) at 200 ppm [6] | mortality at 200 ppm [1] | percent effect (mortality or growth inhibition) at 200 ppm [2]

CCS(=O)(=O)c1cc([S+]([O-])C(F)(F)F)cnc1-c1nnc(-c2cc(C(F)(F)F)ccn2)n1C (stereo not drawn) [Compound P36, 3-ethylsulfonyl-2-[4-methyl-5-[4-(trifluoromethyl)-2-pyridyl]-1,2,4-triazol-3-yl]-5-(trifluoromethylsulfinyl)pyridine]
≥ 80%: mortality at 24 ppm [7] | percent effect (mortality or growth inhibition) at 200 ppm [2]

CCS(=O)(=O)c1ccc(C2CC2)nc1-c1nnc(-c2cc(C(F)(F)F)ccn2)n1C [Compound P38]
≥ 80%: percent effect (mortality or growth inhibition) at 200 ppm [6] | mortality at 200 ppm [1] | percent effect (mortality or growth inhibition) at 200 ppm [2]

CCS(=O)(=O)c1ccc(-c2cccc(F)c2)nc1-c1nnc(-c2cc(C(F)(F)F)ccn2)n1C [Compound P50, 3-ethylsulfonyl-6-(3-fluorophenyl)-2-[4-methyl-5-[4-(trifluoromethyl)-2-pyridyl]-1,2,4-triazol-3-yl]pyridine]
≥ 80%: percent effect (mortality or growth inhibition) at 200 ppm [6] | mortality at 200 ppm [1] | mortality at 200 ppm [5] | percent effect (mortality or growth inhibition) at 200 ppm [2] | percent effect (mortality or growth inhibition) at 200 ppm [3] | percent control (mortality, anti-feedancy or growth inhibition) at 12.5 ppm [8] | mortality at 200 ppm [4]

CCS(=O)(=O)c1cc(-c2cccc(F)c2)cnc1-c1nnc(-c2cc(C(F)(F)F)ncn2)n1C [Compound P52]
≥ 80%: percent effect (mortality or growth inhibition) at 200 ppm [6] | mortality at 200 ppm [1] | mortality at 200 ppm [5] | percent effect (mortality or growth inhibition) at 200 ppm [2] | percent effect (mortality or growth inhibition) at 200 ppm [3] | percent control (mortality, anti-feedancy or growth inhibition) at 12.5 ppm [8] | mortality at 200 ppm [4]

CCS(=O)(=O)c1cc(-c2cccc(F)c2)cnc1-c1nnc(-c2cc(C(F)(F)F)ccn2)n1C [Compound P53]
≥ 80%: percent effect (mortality or growth inhibition) at 200 ppm [6] | mortality at 200 ppm [1] | percent effect (mortality or growth inhibition) at 200 ppm [2]
